Earlier results, collected in patent US20240082176A1 (Productos Farmaceuticos, S.A. DE C.V., priority 2017, published 2024).
Values belong to the compound of their own block, whether it stands above or below them.

Key:
[1] = in vivo
[2] = in vivo; remark: listed apart in the source
[3] = test system: citric acid-induced cough

renal clearance as share of total clearance [1]: 8%
terminal elimination half-life [1]: 10 h
Compound: Nc1c(Br)cc(Br)cc1CN[C@H]1CC[C@H](O)CC1 [ambroxol, trans-4-[(2-amino-3,5-dibromophenyl)methylamino] cyclohexane-1-ol]

elimination half-life [2]: 4 h
Compound: OCC(O)CN1CCN(c2ccccc2)CC1 (racemic) [dropropizine, (R, S)-3-(4-phenylpiperazin-1-yl) propane-1,2-diol]
time after administration at which cough suppression is reached ([3]; after the administration of the drug): 1 h
period for which the antitussive effect persists ([3]; human, in vivo): 6 h
antitussive activity compared with codeine (cough; vs codeine): comparable
antitussive activity compared with its levo enantiomer (cough; vs levodropropizine): comparable

oral bioavailability (estimated): greater than 75%
half-life t1/2 (in vivo): 2 h
plasma protein binding (plasma protein): 11-14%
Compound: OC[C@@H](O)CN1CCN(c2ccccc2)CC1 [levodropropizine]
